Data reported in publication PMC11116084 (Journal of Applied Glycoscience, 2024).

Tested on: ALMAN (Allium cepa α-mannosidase)
Assay: p-nitrophenol release, absorption at […] nm
Type: biochemical
Details: 20 mM sodium acetate pH 4.0, 40 °C (standard assay)

`O=[N+]([O-])c1ccc(O[C@H]2O[C@H](CO)[C@@H](O)[C@H](O)[C@@H]2O)cc1` [pNP-α-Man] gave a Km of 1690 µM.
